For orientation: inhibition means the percentage by which the read-out fell short of the control.

Assay [1] is described as follows: In vitro antiarthritic activity assessed as inhibition of bovine serum albumin denaturation at 100 ug/mL after 20 min by UV-Visible spectrophotometric analysis relative to control. Type of assay: functional.
The nature of assay [2]: In vitro antiarthritic activity assessed as inhibition of bovine serum albumin denaturation at 50 ug/mL after 20 min by UV-Visible spectrophotometric analysis relative to control. Format: functional.
The nature of assay [3]: In vitro antiarthritic activity assessed as inhibition of bovine serum albumin denaturation at 200 ug/mL after 20 min by UV-Visible spectrophotometric analysis relative to control. Format: functional.
Assay [4] is described as follows: In vitro antiarthritic activity assessed as inhibition of bovine serum albumin denaturation at 800 ug/mL after 20 min by UV-Visible spectrophotometric analysis relative to control. Type of assay: functional.
Assay [5] is described as follows: Anti-inflammatory activity in Homo sapiens (human) RBCs assessed as prevention of hemolysis at 50 ug/mL after 30 min by UV-Vis spectrophotometric analysis relative to control. Format: functional, Erythrocyte.
For the next assay, the system named is Erythrocyte. Kind of assay: Anti-inflammatory activity in Homo sapiens (human) RBCs assessed as prevention of hemolysis after 30 min by UV-Vis spectrophotometric analysis. Type of assay: functional, cell-based.
The nature of assay [6]: Anti-inflammatory activity in Homo sapiens (human) RBCs assessed as prevention of hemolysis at 200 ug/mL after 30 min by UV-Vis spectrophotometric analysis relative to control. Type of assay: functional, Erythrocyte.
The nature of assay [7]: In vitro antiarthritic activity assessed as inhibition of bovine serum albumin denaturation after 20 min by UV-Visible spectrophotometric analysis. Format: functional.
The nature of assay [8]: Anti-inflammatory activity in Homo sapiens (human) RBCs assessed as prevention of hemolysis at 10 ug/mL after 30 min by UV-Vis spectrophotometric analysis relative to control. Type of assay: functional, Erythrocyte.
Assay [9] is described as follows: In vitro antiarthritic activity assessed as inhibition of bovine serum albumin denaturation at 400 ug/mL after 20 min by UV-Visible spectrophotometric analysis relative to control. Type of assay: functional.
A short description of assay [10]: Anti-inflammatory activity in Homo sapiens (human) RBCs assessed as prevention of hemolysis at 100 ug/mL after 30 min by UV-Vis spectrophotometric analysis relative to control. Format: functional, Erythrocyte.

As for `O=C(NCCSCCOc1ccccc1-c1ccccc1OCCSCCNC(=O)c1ccco1)c1ccco1`, the inhibition was 46.6% in assay [1]; 25.7% in assay [2]; 68.8% in assay [3]; 97.2% in assay [4]; “Dose-dependent effect” with Erythrocyte; “Dose-dependent effect” in assay [7]. The inhibition in assay [9] turned out to be 83.1%. The Activity worked out at 62.9% in assay [5], 94.1% in assay [6], 55.2% in assay [8] and 84.7% in assay [10].
On to `O=C(Cc1cccs1)NCCSCCOc1ccccc1-c1ccccc1OCCSCCNC(=O)Cc1cccs1`, for which the inhibition was 34.9% in assay [1]; 28.3% in [2]; 41.1% in assay [3]; 84.8% in [4]; “Dose-dependent effect” in the assay on Erythrocyte; “Dose-dependent effect” in assay [7]. Besides, the inhibition in assay [9] amounted to 69.6%. Besides, the Activity amounted to 58.6% in assay [5], 83.3% in assay [6], 47.3% in assay [8] and 67.2% in assay [10].
For `O=C(NCCSCCOc1ccccc1-c1ccccc1OCCSCCNC(=O)c1ccccc1)c1ccccc1`, the inhibition in assay [1] was 38.2%; in [2], 15.8%; in assay [3], 53%; in assay [4] it was 81.8%; in the assay with Erythrocyte it was “Dose-dependent effect”; in [7], “Dose-dependent effect”. Further, the inhibition in [9] worked out at 67.8%. For the same compound, the Activity worked out at 49% in assay [5], 77.5% in assay [6], 35.7% in [8] and 60.7% in [10].
With `C[C@]12C=CC(=O)C=C1CC[C@@H]1[C@@H]2[C@@H](O)C[C@@]2(C)[C@H]1CC[C@]2(O)C(=O)CO` [PREDNISOLONE], the Activity in assay [5] was determined as 57.9%; in [6] it was 91%; in assay [8], 46%; in assay [10], 84.8%.
As for `O=C(Cn1cnnn1)NCCSCCOc1ccc2ccccc2c1-c1c(OCCSCCNC(=O)Cn2cnnn2)ccc2ccccc12`, the inhibition in assay [1] is 39.6%; in assay [2], 19.6%; in [3] it was 67.1%; in [4], 94.2%; in the assay with Erythrocyte it was “Dose-dependent effect”; in [7], “Dose-dependent effect”. Moreover, the inhibition in assay [9] worked out at 74.1%. Also, the Activity in assay [5] is recorded as 69.7%; in [6] it was 91.6%; in [8] it was 61.9%; in [10], 82.5%.
On to `O=C(Cn1cnnn1)NCCSCCOc1ccccc1-c1ccccc1OCCSCCNC(=O)Cn1cnnn1`, for which the inhibition in assay [1] is 42.2%; in [2] it was 21.6%; in assay [3], 65.1%; in [4], 91.9%; in the assay on Erythrocyte it was “Dose-dependent effect”; in assay [7], “Dose-dependent effect”. Moreover, the inhibition in [9] came out at 76.3%. Besides, the Activity in assay [5] is reported as 63.3%; in assay [6], 89.4%; in assay [8] it was 54%; in [10] it was 75.3%.
As to `O=C(NCCSCCOc1ccc2ccccc2c1-c1c(OCCSCCNC(=O)c2ccco2)ccc2ccccc12)c1ccco1`, the inhibition was 50.8% in [1]; 29.5% in assay [2]; 71.5% in [3]; 98.7% in assay [4]; “Dose-dependent effect” in the assay on Erythrocyte; “Dose-dependent effect” in [7]. In [9], the inhibition stood at 87.8%. In addition, the Activity in assay [5] came to 65.5%; in assay [6] it was 96.2%; in [8], 56.5%; in assay [10] it was 88.9%.
As for `O=C(Cc1cccs1)NCCSCCOc1ccc2ccccc2c1-c1c(OCCSCCNC(=O)Cc2cccs2)ccc2ccccc12`, the inhibition in assay [1] was 42.2%; in assay [2], 23.6%; in assay [3], 59.1%; in [4], 87.4%; with Erythrocyte it was “Dose-dependent effect”; in assay [7] it was “Dose-dependent effect”. For the same compound, in assay [9], the inhibition is 73.3%. The Activity in assay [5] was 61.7%; in [6], 86%; in assay [8], 50.2%; in assay [10], 72.8%.
Turning to `O=C(NCCSCCOc1ccc2ccccc2c1-c1c(OCCSCCNC(=O)c2ccccc2)ccc2ccccc12)c1ccccc1`, the inhibition in [1] is 30.3%; in assay [2], 19.5%; in [3], 52.3%; in [4], 82.7%; with Erythrocyte, “Dose-dependent effect”; in [7], “Dose-dependent effect”. In assay [9], the inhibition worked out at 65.8%. For the same compound, the Activity in [5] was determined as 51.4%; in assay [6], 79.4%; in assay [8], 34.5%; in assay [10], 63.6%.
For the compound `O=C(O)Cc1ccccc1Nc1c(Cl)cccc1Cl`, the inhibition stood at 10.9% in assay [1]; 5.6% in assay [2]; 15.2% in assay [3]; 76.7% in [4]; 21.6% in assay [9].

The record behind these values is ChEMBL document CHEMBL3044854, “Synthesis and biological evaluation of diamide derivatives of (S)-BINOL and biphenyl as potential anti-inflammatory/anti-arthritic agents” (2013).
